# In paper PMC5916021 (Chemical Science, 2018):
# Like-named read-outs stand apart in the source and are kept apart here.
# Experiments:
# [1] = tested on: AKT1 serine 129 phosphorylation in HCT116 cells; conditions: 2 × GI50 (20 μM), 72 hours
# [2] = molecular target: T1, CK2α (Homo sapiens, UniProt P68400); test: biochemical; conditions: for inhibition at 10 µM: read-out: Inhibition @10 μM; for inhibition at 500 µM: read-out: Inhibition of the kinase activity @ 500 μM
# [3] = molecular target: T1, CK2α; conditions: for Enthalpy / Entropy: ITC; for LE (ligand efficiency): LE = ΔG/[number of heavy atoms]
# [4] = molecular target: SGK1 (Homo sapiens, UniProt O00141); test: biochemical; conditions: read-out: inhibition of SGK1
# [5] = molecular target: SmMLCK (Homo sapiens, UniProt Q15746); test: biochemical; conditions: read-out: inhibition of SmMLCK
# [6] = molecular target: EF2K (Homo sapiens, UniProt O00418); test: biochemical; conditions: read-out: inhibition of EF2K
# [7] = physchem; conditions: kinase assay conditions
# [8] = tested on: HCT116 cells; conditions: from the functional (IC50) to the cellular assay (GI50)
# [9] = molecular target: T1, CK2α
# [10] = molecular target: CAMK1 (Homo sapiens, UniProt Q14012); test: biochemical; conditions: read-out: inhibition of CAMK1
# [11] = tested on: HCT116 cells; test: cells; conditions: Homo sapiens, HCT-116, 72 h
# [12] = tested on: panel of 140 kinases; conditions: 30 μM (4 × IC50)
# [13] = molecular target: T1, CK2α; remark: listed apart in the source
# [14] = tested on: CK2; conditions: read-out: IC50 against CK2; cited from earlier work
# [15] = tested on: kinases; conditions: cited from earlier work; for number of kinases with > 70% inhibition: at 0.5 µM
# T1 sequence (P68400 2-329): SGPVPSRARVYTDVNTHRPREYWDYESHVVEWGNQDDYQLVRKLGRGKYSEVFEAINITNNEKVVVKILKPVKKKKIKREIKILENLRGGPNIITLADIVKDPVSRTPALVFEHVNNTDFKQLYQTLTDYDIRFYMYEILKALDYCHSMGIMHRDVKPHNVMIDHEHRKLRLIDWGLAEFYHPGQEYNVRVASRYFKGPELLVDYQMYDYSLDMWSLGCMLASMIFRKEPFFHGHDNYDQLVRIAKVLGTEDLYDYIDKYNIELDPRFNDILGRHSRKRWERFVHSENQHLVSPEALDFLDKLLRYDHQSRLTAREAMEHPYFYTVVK
# Chain of SGK1 (O00141 whole entry, species assumed): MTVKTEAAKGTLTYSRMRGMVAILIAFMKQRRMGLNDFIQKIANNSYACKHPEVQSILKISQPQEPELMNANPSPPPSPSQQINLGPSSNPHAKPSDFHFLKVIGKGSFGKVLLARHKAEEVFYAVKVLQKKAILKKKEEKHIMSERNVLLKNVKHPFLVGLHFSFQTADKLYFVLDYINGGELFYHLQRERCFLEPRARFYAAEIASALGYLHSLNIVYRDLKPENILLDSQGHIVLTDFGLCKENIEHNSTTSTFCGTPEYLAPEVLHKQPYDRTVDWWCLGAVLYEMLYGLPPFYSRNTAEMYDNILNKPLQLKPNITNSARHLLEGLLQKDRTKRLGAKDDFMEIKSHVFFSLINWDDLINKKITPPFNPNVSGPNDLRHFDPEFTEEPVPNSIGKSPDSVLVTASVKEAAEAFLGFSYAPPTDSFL
# Chain of CAMK1 (Q14012 whole entry): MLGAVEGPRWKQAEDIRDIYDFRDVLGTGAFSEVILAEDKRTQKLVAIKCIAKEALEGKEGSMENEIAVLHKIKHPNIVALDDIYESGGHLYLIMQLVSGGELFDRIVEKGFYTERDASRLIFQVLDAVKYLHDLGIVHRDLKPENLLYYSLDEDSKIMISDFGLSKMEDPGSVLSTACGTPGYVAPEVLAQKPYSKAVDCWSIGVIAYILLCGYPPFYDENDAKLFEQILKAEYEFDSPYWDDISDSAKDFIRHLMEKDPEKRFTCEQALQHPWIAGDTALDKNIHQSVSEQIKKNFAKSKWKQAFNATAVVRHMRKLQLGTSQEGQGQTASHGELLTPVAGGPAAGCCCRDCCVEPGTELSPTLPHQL
# Chain of EF2K (O00418 whole entry): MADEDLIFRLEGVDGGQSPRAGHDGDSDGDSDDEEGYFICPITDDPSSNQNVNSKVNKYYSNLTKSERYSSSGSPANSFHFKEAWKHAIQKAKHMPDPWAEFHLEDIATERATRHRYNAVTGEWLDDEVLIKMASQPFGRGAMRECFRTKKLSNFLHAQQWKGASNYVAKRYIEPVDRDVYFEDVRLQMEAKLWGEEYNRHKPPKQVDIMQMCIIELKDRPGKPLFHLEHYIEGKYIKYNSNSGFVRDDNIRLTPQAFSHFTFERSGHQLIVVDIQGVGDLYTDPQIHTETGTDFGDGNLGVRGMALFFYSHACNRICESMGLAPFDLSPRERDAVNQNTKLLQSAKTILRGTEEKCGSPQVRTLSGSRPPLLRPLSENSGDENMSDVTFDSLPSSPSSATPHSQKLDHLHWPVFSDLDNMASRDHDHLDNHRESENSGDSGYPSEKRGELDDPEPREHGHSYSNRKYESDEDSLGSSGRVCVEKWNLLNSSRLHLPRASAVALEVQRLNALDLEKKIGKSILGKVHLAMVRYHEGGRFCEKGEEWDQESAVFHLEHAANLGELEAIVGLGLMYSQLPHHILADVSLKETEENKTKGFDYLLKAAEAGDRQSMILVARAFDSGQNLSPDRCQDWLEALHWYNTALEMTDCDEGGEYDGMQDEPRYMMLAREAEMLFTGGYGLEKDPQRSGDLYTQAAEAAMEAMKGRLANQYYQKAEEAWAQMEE
# Chain of SmMLCK (Q15746 923-1914): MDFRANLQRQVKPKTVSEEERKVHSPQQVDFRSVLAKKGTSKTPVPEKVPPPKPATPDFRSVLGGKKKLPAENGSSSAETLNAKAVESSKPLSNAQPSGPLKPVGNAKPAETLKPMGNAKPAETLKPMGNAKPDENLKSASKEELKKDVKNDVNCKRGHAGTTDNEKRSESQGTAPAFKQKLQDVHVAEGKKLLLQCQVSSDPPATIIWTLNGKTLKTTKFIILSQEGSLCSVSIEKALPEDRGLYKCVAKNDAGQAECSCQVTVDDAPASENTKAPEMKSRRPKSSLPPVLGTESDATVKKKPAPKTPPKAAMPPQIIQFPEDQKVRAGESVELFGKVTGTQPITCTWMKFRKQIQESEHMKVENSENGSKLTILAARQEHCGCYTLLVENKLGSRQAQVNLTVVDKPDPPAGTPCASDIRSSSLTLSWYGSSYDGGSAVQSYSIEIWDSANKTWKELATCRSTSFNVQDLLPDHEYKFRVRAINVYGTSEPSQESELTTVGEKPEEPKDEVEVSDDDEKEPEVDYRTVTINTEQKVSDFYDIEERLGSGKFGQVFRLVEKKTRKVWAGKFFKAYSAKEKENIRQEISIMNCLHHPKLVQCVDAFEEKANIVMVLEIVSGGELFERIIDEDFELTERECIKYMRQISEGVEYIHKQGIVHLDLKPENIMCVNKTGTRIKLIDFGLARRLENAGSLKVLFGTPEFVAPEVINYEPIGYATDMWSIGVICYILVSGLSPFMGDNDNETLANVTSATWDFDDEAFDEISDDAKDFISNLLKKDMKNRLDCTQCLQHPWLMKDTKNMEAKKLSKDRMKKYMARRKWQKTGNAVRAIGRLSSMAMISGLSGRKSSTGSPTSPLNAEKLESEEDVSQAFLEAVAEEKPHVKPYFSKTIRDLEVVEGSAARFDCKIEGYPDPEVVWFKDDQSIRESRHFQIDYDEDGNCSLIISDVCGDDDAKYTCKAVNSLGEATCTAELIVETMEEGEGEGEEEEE
smiles,measurement,setting,value
CCc1ccccc1-c1c(Cl)cc(CNCCc2nc3ccccc3[nH]2)cc1Cl [CAM4712],inhibition of the phosphorylation of Ser129 of Akt1,[1],good inhibition
same,inhibition at 10 µM,[2],80%
same,Enthalpy,[3],-4.09 kcal/mol
same,Entropy,[3],9.46 cal/mol/deg
same,inhibition at 30 µM,[4],> 50%
same,solubility for ITC,,not soluble enough for ITC
same,solubility in water,,moderate solubility
same,inhibition at 30 µM,[5],> 50%
same,inhibition at 30 µM,[6],> 50%
same,solubility,[7],≤ 50 µM
same,Drop in potency,[8],No
same,Inhibition of binding of compound 37 (Lys68 probe) to CK2α,[9]; 20 μM CAM4712,not inhibited
same,Enthalpy,[9]; CAM4712 in competition with 15,-3.42 kcal/mol
same,Enthalpy,[9]; CAM4712 in competition with CAM4066,-11.71 kcal/mol
same,Enthalpy,[9]; CAM4712 in competition with CX4945,-5.9 kcal/mol
same,inhibition at 30 µM,[10],> 50%
same,GI50,[11],10 ± 3.6 µM
same,number of kinases inhibited for more than 50%,[12],4
same,decrease in potency compared to CAM4066,[13],10 fold
O=C(O)c1ccc2c(c1)nc(Nc1cccc(Cl)c1)c1ccncc12 [CX4945],IC50,[14],[…]
same,number of kinases with > 70% inhibition,"[15]; ref 2 (H. Kim et al., PLoS One, 2014)",26
same,number of other kinases inhibited with nanomolar affinity,[15],12
same,GI50,[11],11.3 ± 1.2 µM
O=C(O)c1ccc2c(c1)nc(Nc1cccc(C(F)(F)F)c1)c1nc(NC3CC3)ncc12 [CX5279],number of kinases with > 70% inhibition,"[15]; ref 5 (R. Battistutta et al., Biochemistry, 2011)",4
Cc1ccccc1-c1ccc(CN)cc1Cl.Cl [Compound 2],Enthalpy,[3],-5.054 kcal/mol
same,Entropy,[3],3.11 cal/mol/deg
same,LE (ligand efficiency),[3],0.38
CC(C)c1ccccc1-c1ccc(CN)cc1Cl.Cl [Compound 4],Enthalpy,[3],-1.846 kcal/mol
same,Entropy,[3],-23.2 cal/mol/deg
same,LE (ligand efficiency),[3],0.29
COc1ccccc1-c1ccc(CN)cc1Cl.Cl [Compound 5],Enthalpy,[3],-1.184 kcal/mol
same,Entropy,[3],-23.2 cal/mol/deg
same,LE (ligand efficiency),[3],0.30
NCc1ccc(-c2ccccc2F)c(Cl)c1 [Compound 6],Enthalpy,[3],-1.253 kcal/mol
same,Entropy,[3],-25.4 cal/mol/deg
same,LE (ligand efficiency),[3],0.32
Cl.NCc1ccc(-c2ccccc2O)c(Cl)c1 [Compound 7],Enthalpy,[3],-5.671 kcal/mol
same,Entropy,[3],-3.34 cal/mol/deg
same,LE (ligand efficiency),[3],0.30
Cc1cc(F)ccc1-c1ccc(CN)cc1Cl.Cl [Compound 11],Enthalpy,[3],-6.977 kcal/mol
same,Entropy,[3],-5.21 cal/mol/deg
same,LE (ligand efficiency),[3],0.33
Cl.NCc1ccc(-c2cccc3ccccc23)c(Cl)c1 [Compound 12],Enthalpy,[3],-8.425 kcal/mol
same,Entropy,[3],-11 cal/mol/deg
same,LE (ligand efficiency),[3],0.27
Cl.NCc1cc(Cl)c(-c2ccccc2)c(Cl)c1 [Compound 14],Enthalpy,[3],-3.333 kcal/mol
same,Entropy,[3],9.78 cal/mol/deg
same,LE (ligand efficiency),[3],0.43
CCc1ccccc1-c1c(Cl)cc(CN)cc1Cl.O=C(O)C(F)(F)F [Compound 15],Enthalpy,[3],-6.361 kcal/mol
same,Entropy,[3],11.8 cal/mol/deg
same,LE (ligand efficiency),[3],0.41
Clc1cc(CNCc2ccccc2)ccc1-c1ccccc1 [Compound 16],inhibition at 500 µM,[2],54%
Clc1cc(CNCCc2ccccc2)ccc1-c1ccccc1 [Compound 17],inhibition at 500 µM,[2],42%
Clc1cc(CNCCCc2ccccc2)ccc1-c1ccccc1 [Compound 18],inhibition at 500 µM,[2],40%
Clc1cc(CNCc2ccc[nH]2)ccc1-c1ccccc1 [Compound 19],inhibition at 500 µM,[2],52%
Clc1cc(CNCCc2cnc[nH]2)ccc1-c1ccccc1 [Compound 20],inhibition at 500 µM,[2],50%
CCc1ccccc1-c1ccc(CNCCc2nc3ccccc3[nH]2)cc1Cl [Compound 23],inhibition of the phosphorylation of Ser129 of Akt1,[1],good inhibition
same,solubility,[7],≤ 50 µM
same,GI50,[11],10 µM
CCc1ccccc1-c1ccc(CNCCc2nc3cccc(C)c3[nH]2)cc1Cl [Compound 24],inhibition at 10 µM,[2],45%
CCc1ccccc1-c1ccc(CNCCc2nc3cccc([N+](=O)[O-])c3[nH]2)cc1Cl [Compound 25],inhibition at 10 µM,[2],50%
CCc1ccccc1-c1ccc(CNCCc2nc3cccc(OC)c3[nH]2)cc1Cl.Cl [Compound 26],inhibition of the phosphorylation of Ser129 of Akt1,[1],good inhibition
same,inhibition at 10 µM,[2],52%
same,solubility,[7],≤ 50 µM
same,GI50,[11],11 µM
CCc1ccccc1-c1ccc(CNCCc2nc3ccc(C)cc3[nH]2)cc1Cl [Compound 27],inhibition at 10 µM,[2],38%
CCc1ccccc1-c1ccc(CNCCc2nc3ccc([N+](=O)[O-])cc3[nH]2)cc1Cl [Compound 28],inhibition at 10 µM,[2],36%
CCc1ccccc1-c1ccc(CNCCc2nc3ccc(OC)cc3[nH]2)cc1Cl.Cl [Compound 29],inhibition at 10 µM,[2],64%
same,solubility,[7],≤ 50 µM
same,GI50,[11],11 µM
CCc1ccccc1-c1ccc(CNCCc2nc3ccc(Cl)cc3[nH]2)cc1Cl [Compound 30],inhibition at 10 µM,[2],50%
CCc1ccccc1-c1ccc(CNCCc2nc3ccccc3[nH]2)cc1C [Compound 31],inhibition at 10 µM,[2],30%
CCc1ccccc1-c1ccc(CNCCc2nc3ccccc3[nH]2)cc1C(F)(F)F [Compound 32],inhibition at 10 µM,[2],23%
CCc1ccccc1-c1ccc(CNCCc2nc3ccccc3[nH]2)cc1OC [Compound 33],inhibition at 10 µM,[2],41%
CCc1ccccc1-c1ccc(CNCCc2nc3ccccc3[nH]2)cc1OC(F)(F)F [Compound 34],inhibition at 10 µM,[2],39%
CCc1ccccc1-c1c(Cl)cc(CNCCc2nc3cccc(OC)c3[nH]2)cc1Cl [Compound 35],inhibition at 10 µM,[2],47%
CCc1ccccc1-c1c(Cl)cc(CNCCc2nc3ccc(OC)cc3[nH]2)cc1Cl [Compound 36],inhibition at 10 µM,[2],46%
